Laboratory results taken from US20050137220A1 (Pharmacia Corporation, priority 2003, published 2005).
Structures can show the parent of a compound that is named as a salt. Where two headings read alike, the source gives them in different places.

What was measured:
U937 cells = assay: U937 Cell TNFα Release Assay; type: cell-based, human; details: mixture of stereoisomers implied unless otherwise noted
MK-2 = MK-2 (Homo sapiens, UniProt P49137); assay: Determination of MK-2 IC50 (phosphorylation of HSP-peptide, anion exchange resin capture assay); type: biochemical; details: additional values are replicate IC50 experiments; mixture of stereoisomers implied unless otherwise noted; read-out: MK-2 Avg. IC50
MK-2, sequence (P49137 whole entry, species assumed): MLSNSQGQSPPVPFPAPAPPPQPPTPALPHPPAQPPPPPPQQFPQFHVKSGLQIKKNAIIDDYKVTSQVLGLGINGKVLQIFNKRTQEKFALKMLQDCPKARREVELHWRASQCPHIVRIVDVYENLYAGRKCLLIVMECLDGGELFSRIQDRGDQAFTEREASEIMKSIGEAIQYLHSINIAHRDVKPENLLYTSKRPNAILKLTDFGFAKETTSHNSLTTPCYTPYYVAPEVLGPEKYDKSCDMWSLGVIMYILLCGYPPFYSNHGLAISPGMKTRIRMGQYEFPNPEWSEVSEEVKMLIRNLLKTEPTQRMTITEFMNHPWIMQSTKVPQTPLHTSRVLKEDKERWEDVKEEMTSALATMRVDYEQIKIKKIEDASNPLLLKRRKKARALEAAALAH

[1] = Homo sapiens, U-937, 4 h, LPS-stimulated differentiated U937 cells, TNFα by ELISA, read-out: TNF Release Assay Avg. IC50
[2] = Homo sapiens, U-937, read-out: TNF Release Assay Avg. IC50, LPS-stimulated differentiated U937 cells, TNFα by ELISA
[3] = Homo sapiens, U-937, 4 h, read-out: TNF Release Assay Avg. IC50, LPS-stimulated differentiated U937 cells, TNFα by ELISA
[4] = Homo sapiens, U-937, LPS-stimulated differentiated U937 cells, TNFα by ELISA, read-out: TNF Release Assay Avg. IC50

Row | Structure (SMILES) | IC50 (MK-2) [µM] | also measured
1 | O=C(O)C1c2[nH]c3ccc(O)cc3c2C2CCN1C2 (stereo not shown) [Example 2, 7-hydroxy-3,4,5,10-tetrahydro-1H-2,5-methanoazepino[3,4-b]indole-1-carboxylic acid hydrochloride] | – | IC50 (U937 cells; [1]): 42.6 µM
2 | COc1ccc2[nH]c3c(c2c1)C1CCN(C1)C3C(=O)OCC(O)CO (stereo not shown) [Example 20, 2,3-dihydroxypropyl 7-methoxy-3,4,5,10-tetrahydro-1H-2,5-methanoazepino[3,4-b]indole-1-carboxylate hydrochloride] | – | IC50 (U937 cells; [2]): > 100 µM
3 | CCC1CNC(C(=O)O)c2[nH]c3ccc(OC)cc3c21 (stereo not drawn) [Example 21, 4-ethyl-6-methoxy-2,3,4,9-tetrahydro-1H-beta-carboline-1-carboxylic acid hydrochloride] | – | IC50 (U937 cells; [3]): > 100 µM
4 | COc1ccc2[nH]c3c(c2c1)C(C)CNC3C(=O)O (stereo not drawn) [Example 22, 6-methoxy-4-methyl-2,3,4,9-tetrahydro-1H-beta-carboline-1-carboxylic acid] | – | IC50 (U937 cells; [3]): 92.2 µM
5 | COc1ccc2[nH]c3c(c2c1)CC(CO)NC3C(=O)O (stereo not drawn) [Example 24, 3-(hydroxymethyl)-6-methoxy-2,3,4,9-tetrahydro-1H-beta-carboline-1-carboxylic acid] | – | IC50 (U937 cells; [3]): > 100 µM
6 | COc1ccc2[nH]c3c(c2c1)C1CCN(C1)C3C(=O)OCCF (stereo not shown) [Example 26, trifluoroacetate] | – | IC50 (U937 cells; [2]): 2.04 µM
7 | C=CCOC(=O)C1c2[nH]c3ccc(OC)cc3c2C2CCN1C2 (stereo not shown) [Example 28, allyl 7-methoxy-3,4,5,10-tetrahydro-1H-2,5-methanoazepino[3,4-b]indole-1-carboxylate hydrochloride] | – | IC50 (U937 cells; [2]): 14.5 µM
8 | COc1ccc2[nH]c3c(c2c1)C1CCN(C1)C3C(=O)OCc1ccccc1 (stereo not shown) [Example 31, benzyl 7-methoxy-3,4,5,10-tetrahydro-1H-2,5-methanoazepino[3,4-b]indole-1-carboxylate trifluoroacetate] | – | IC50 (U937 cells; read-out: TNF Release Assay Avg. IC50, LPS-stimulated differentiated U937 cells, TNFα by ELISA, trifluoroacetate): 46.2 µM
9 | COc1ccc2[nH]c3c(c2c1)C1CCN(C1)C3C(=O)OCCSC (stereo not shown) [Example 32, hydrochloride] | – | IC50 (U937 cells; [2]): 29.9 µM
10 | O=C(O)C1NCCc2c1[nH]c1ccc(O)cc21 (stereo not drawn) [Example 33, 6-hydroxy-2,3,4,9-tetrahydro-1H-beta-carboline-1-carboxylic acid hydrochloride] | – | IC50 (U937 cells; [3]): > 100 µM
11 | COCCOC(=O)C1c2[nH]c3ccc(OC)cc3c2C2CCN1C2 (stereo not shown) [Example 35, hydrochloride] | – | IC50 (U937 cells; read-out: TNF Release Assay Avg. IC50, LPS-stimulated differentiated U937 cells, TNFα by ELISA, hydrochloride): 93.2 µM
12 | COc1ccc2[nH]c3c(c2c1)CC(CO)NC3=O (stereo not drawn) [Example 37, 3-(hydroxymethyl)-6-methoxy-2,3,4,9-tetrahydro-1H-beta-carbolin-1-one] | – | IC50 (U937 cells; [4]): > 100 µM
13 | COC(=O)C1c2[nH]c3ccc(O)cc3c2C2CCN1C2 (stereo not shown) [Example 40, methyl 7-hydroxy-3,4,5,10-tetrahydro-1H-2,5-methanoazepino[3,4-b]indole-1-carboxylate hydrochloride] | – | IC50 (U937 cells; [2]): 25.5 µM
14 | CSc1ccc2[nH]c3c(c2c1)C1CCN(C1)C3C(=O)O (stereo not shown) [Example 50] | – | IC50 (U937 cells; [1]): 15.3 µM
15 | COC(=O)C1c2[nH]c3ccc(OC)cc3c2C2CCN1C2 (stereo not shown) [Example 58, methyl 7-methoxy-3,4,5,10-tetrahydro-1H-2,5-methanoazepino[3,4-b]indole-1-carboxylate trifluoroacetate] | – | IC50 (U937 cells; [4]): 16.3 µM
16 | COc1ccc2[nH]c3c(c2c1)C1CCN(C1)C3C(=O)OC(C)C (stereo not shown) [Example 59, isopropyl 7-methoxy-3,4,5,10-tetrahydro-1H-2,5-methanoazepino[3,4-b]indole-1-carboxylate hydrochloride] | – | IC50 (U937 cells; [2]): > 100 µM
17 | O=C1NCCc2c1[nH]c1c(Cl)ccc(Cl)c21 [Example 252, 5,8-dichloro-2,3,4,9-tetrahydro-1H-beta-carbolin-1-one] | > 200 | –

Row | Structure (SMILES) | IC50 (MK-2) [µM] | also measured
18 | O=C1NCCc2c1[nH]c1ccc([N+](=O)[O-])cc21 [Example 253, 6-nitro-2,3,4,9-tetrahydro-1H-beta-carbolin-1-one] | > 200 | –
19 | Cc1ccc2[nH]c3c(c2c1)CCNC3=O [Example 254, 1h-Pyrido[3,4-B]Indol-1-One,2,3,4,9-Tetrahydro-6-Methyl-] | > 200 | –
20 | CCOc1cc([N+](=O)[O-])c2[nH]c3c(c2c1)CCNC3=O [Example 255, 6-ethoxy-8-nitro-2,3,4,9-tetrahydro-1H-beta-carbolin-1-one] | > 200 | –
21 | O=C1NCCc2c1[nH]c1c(Br)cc3c(c21)OCCO3 [Example 256, 6-bromo-2,3,7,9,10,11-hexahydro-8H-[1,4]dioxino[2,3-e]pyrido[3,4-b]indol-8-one] | > 200 | –
22 | CN1CCc2c(n(-c3ccccc3)c3ccccc23)C1=O [Example 257, 2-methyl-9-phenyl-2,3,4,9-tetrahydro-1H-beta-carbolin-1-one] | > 200 | –
23 | Cc1cccc2c3c([nH]c12)C(=O)NCC3 [Example 258, 1H-Pyrido[3,4-b]indol-1-one,2,3,4,9-tetrahydro-8-methyl- or 8-methyl-2,3,4,9-tetrahydro-1H-beta-carbolin-1-one] | > 200 | –
24 | COc1ccc([N+](=O)[O-])c2c3c(n(C)c12)C(=O)NCC3 [Example 259, 8-methoxy-9-methyl-5-nitro-2,3,4,9-tetrahydro-1H-beta-carbolin-1-one] | > 200 | –
25 | O=C1NCCc2c1[nH]c1ccccc21 [Example 260, 1H-Pyrido[3,4-b]indol-1-one,2,3,4,9-tetrahydro- or 2,3,4,9-tetrahydro-1H-beta-carbolin-1-one] | > 200 | –
26 | O=C1NCCc2c1[nH]c1ccc(F)cc21 [Example 261, 1H-Pyrido[3,4-b]indol-1-one,6-fluoro-2,3,4,9-tetrahydro- or 6-fluoro-2,3,4,9-tetrahydro-1H-beta-carbolin-1-one or 1h-Pyrido[3,4-B]Indol-1-One,6-Fluoro-2,3,4,9-Tetrahydro-] | > 200 | –
27 | O=C1NCCc2c1[nH]c1c(Cl)cccc21 [Example 262, 1H-Pyrido[3,4-b]indol-1-one,8-chloro-2,3,4,9-tetrahydro- or 8-chloro-2,3,4,9-tetrahydro-1H-beta-carbolin-1-one] | > 200 | –
28 | CN1C(=O)C(=O)c2c(n(C)c3ccccc23)C1=O [Example 263, 1H-Pyrido[3,4-b]indole-1,3,4(2H,9H)-trione, 2,9-dimethyl- or 2,9-dimethyl-1H-beta-carboline-1,3,4(2H,9H)-trione] | > 200 | –
29 | COc1ccc2c3c([nH]c2c1)C(=O)NCC3 [Example 264, 7-methoxy-2,3,4,9-tetrahydro-1H-beta-carbolin-1-one] | > 200 | –
30 | CC(C)(C)OC(=O)N1CCN(C(=O)c2cccc3[nH]c4c(c23)CCNC4=O)CC1 [Example 267, tert-butyl 4-[(1-oxo-2,3,4,9-tetrahydro-1H-beta-carbolin-5-yl)carbonyl]piperazine-1-carboxylate] | > 200 | –
31 | O=C1NCCc2c1[nH]c1cccc(C(=O)N3CCNCC3)c21 [Example 268, 5-(piperazin-1-ylcarbonyl)-2,3,4,9-tetrahydro-1H-beta-carbolin-1-one hydrochloride] | > 200 | –
32 | COC1=C(C#N)Cc2c([nH]c3ccc(OC)cc23)C(=O)N1 [Example 269, 3,7-dimethoxy-1-oxo-1,2,5,10-tetrahydroazepino[3,4-b]indole-4-carbonitrile] | > 200 | –
33 | COC(=O)c1ccc2[nH]c3c(c2c1)CCNC3=O [Example 270, methyl 1-oxo-2,3,4,9-tetrahydro-1H-beta-carboline-6-carboxylate] | > 200 | –
34 | O=C(O)c1ccc2[nH]c3c(c2c1)CCNC3=O [Example 271, 1-oxo-2,3,4,9-tetrahydro-1H-beta-carboline-6-carboxylic acid] | > 200 | –
